ChEMBL document CHEMBL5608186, “Design, synthesis and structure-activity relationships of novel non-ketolides: 9-Oxime clarithromycin featured with seven-to thirteen-atom-length diamine linkers at 3-OH” (Eur J Med Chem, 2024)
In brackets after ≈: the same amount, converted by molar mass.

What was measured:
Assay type in all cases: functional
Staphylococcus aureus [1] = experiment: Bactericidal activity against methicillin-resistant Staphylococcus aureus PU 32 harboring i-ermA gene incubated for 16 to 20 hrs by CLSI based broth microdilution method; settings: time 16-20 hrs
Haemophilus influenzae [2] = experiment: Bactericidal activity against Haemophilus influenzae ATCC 49247 incubated for 16 to 20 hrs by CLSI based broth microdilution method; settings: time 16-20 hrs
Haemophilus influenzae [3] = experiment: Antibacterial activity against Haemophilus influenzae ATCC 49247 incubated for 16 to 20 hrs by CLSI based broth microdilution method; settings: time 16-20 hrs
Streptococcus pneumoniae [4] = experiment: Selectivity ratio of MBC for Streptococcus pneumoniae ATCC 49619 to MIC for Streptococcus pneumoniae ATCC 49619
Streptococcus pneumoniae [5] = experiment: Bactericidal activity against Streptococcus pneumoniae PU 09 harboring mef gene incubated for 16 to 20 hrs by CLSI based broth microdilution method; settings: time 16-20 hrs
Streptococcus pneumoniae [6] = experiment: Selectivity ratio of MBC for Streptococcus pneumoniae PU 09 harboring mef gene to MIC for Streptococcus pneumoniae PU 09 harboring mef gene
Staphylococcus aureus [7] = experiment: Bactericidal activity against methicillin-resistant Staphylococcus aureus PU 20 harboring c-ermA gene incubated for 16 to 20 hrs by CLSI based broth microdilution method; settings: time 16-20 hrs
Streptococcus pyogenes [8] = experiment: Bactericidal activity against Streptococcus pyogenes 01-968 harboring i-ermB gene incubated for 16 to 20 hrs by CLSI based broth microdilution method; settings: time 16-20 hrs
Haemophilus influenzae [9] = experiment: Selectivity ratio of MBC for Haemophilus influenzae ATCC 49247 to MIC for Haemophilus influenzae ATCC 49247
Streptococcus pneumoniae [10] = experiment: Antibacterial activity against Streptococcus pneumoniae ATCC 49619 incubated for 16 to 20 hrs by CLSI based broth microdilution method; settings: time 16-20 hrs
Streptococcus pneumoniae [11] = experiment: Bactericidal activity against Streptococcus pneumoniae ATCC 49619 incubated for 16 to 20 hrs by CLSI based broth microdilution method; settings: time 16-20 hrs
Streptococcus pneumoniae [12] = experiment: Antibacterial activity against Streptococcus pneumoniae 07P390 harboring c-erm gene incubated for 16 to 20 hrs by CLSI based broth microdilution method; settings: time 16-20 hrs
Staphylococcus aureus [13] = experiment: Antibacterial activity against methicillin-resistant Staphylococcus aureus PU 32 harboring i-ermA gene incubated for 16 to 20 hrs by CLSI based broth microdilution method; settings: time 16-20 hrs
Streptococcus pneumoniae [14] = experiment: Antibacterial activity against Streptococcus pneumoniae PU 09 harboring mef gene incubated for 16 to 20 hrs by CLSI based broth microdilution method; settings: time 16-20 hrs
Staphylococcus aureus [15] = experiment: Antibacterial activity against methicillin-resistant Staphylococcus aureus PU 20 harboring c-ermA gene incubated for 16 to 20 hrs by CLSI based broth microdilution method; settings: time 16-20 hrs
Streptococcus pneumoniae [16] = experiment: Bactericidal activity against Streptococcus pneumoniae 07P390 harboring c-erm gene incubated for 16 to 20 hrs by CLSI based broth microdilution method; settings: time 16-20 hrs
Streptococcus pneumoniae [17] = experiment: Selectivity ratio of MBC for Streptococcus pneumoniae 07P390 harboring c-erm gene to MIC for Streptococcus pneumoniae 07P390 harboring c-erm gene
Streptococcus pyogenes [18] = experiment: Selectivity ratio of MBC for Streptococcus pyogenes 01-968 harboring i-ermB gene to MIC for Streptococcus pyogenes 01-968 harboring i-ermB gene
Streptococcus pyogenes [19] = experiment: Antibacterial activity against Streptococcus pyogenes 01-968 harboring i-ermB gene incubated for 16 to 20 hrs by CLSI based broth microdilution method; settings: time 16-20 hrs
Staphylococcus aureus [20] = experiment: Selectivity ratio of MBC for methicillin-resistant Staphylococcus aureus PU 32 harboring i-ermA gene to MIC for methicillin-resistant Staphylococcus aureus PU 32 harboring i-ermA gene

Row | Structure (SMILES) | MBC (Staphylococcus aureus [1]) [µg/mL] | MBC (Haemophilus influenzae [2]) [µg/mL] | MIC (Haemophilus influenzae [3]) [µg/mL] | Selectivity ratio (Streptococcus pneumoniae [4]) | MBC (Streptococcus pneumoniae [5]) [µg/mL] | Selectivity ratio (Streptococcus pneumoniae [6]) | MBC (Staphylococcus aureus [7]) [µg/mL] | MBC (Streptococcus pyogenes [8]) [µg/mL] | Selectivity ratio (Haemophilus influenzae [9]) | MIC (Streptococcus pneumoniae [10]) [µg/mL] | MBC (Streptococcus pneumoniae [11]) [µg/mL] | MIC (Streptococcus pneumoniae [12]) [µg/mL] | MIC (Staphylococcus aureus [13]) [µg/mL] | MIC (Streptococcus pneumoniae [14]) [µg/mL] | MIC (Staphylococcus aureus [15]) [µg/mL] | MBC (Streptococcus pneumoniae [16]) [µg/mL] | Selectivity ratio (Streptococcus pneumoniae [17]) | Selectivity ratio (Streptococcus pyogenes [18]) | MIC (Streptococcus pyogenes [19]) [µg/mL] | Selectivity ratio (Staphylococcus aureus [20])
1 | CC[C@H]1OC(=O)[C@H](C)[C@@H](OC(=O)CCNCCCCNc2cc3c(cc2F)c(=O)c(C(=O)O)cn3C2CC2)[C@H](C)[C@@H](O[C@@H]2O[C@H](C)C[C@H](N(C)C)[C@H]2O)[C@](C)(OC)C[C@@H](C)/C(=N\OC/C=C/c2ccc3c(c2)c(=O)c(C(N)=O)cn3CC)[C@H](C)[C@H]2OC(=O)O[C@@]21C | > 256 | 8 (≈ 6.29 µM) | 8 (≈ 6.29 µM) | 2 | 0.06 (≈ 0.0472 µM) | 1 | > 256 | > 2 | 1 | 0.06 (≈ 0.0472 µM) | 0.12 (≈ 0.0943 µM) | 0.25 (≈ 0.196 µM) | 64 (≈ 50.3 µM) | 0.06 (≈ 0.0472 µM) | > 256 | 2 (≈ 1.57 µM) | 8 | >8 | 0.25 (≈ 0.196 µM) | >4
2 | CC[C@H]1OC(=O)[C@H](C)[C@@H](OC(=O)CCN2CCN(c3cc4c(cc3F)c(=O)c(C(=O)O)cn4CC)CC2)[C@H](C)[C@@H](O[C@@H]2O[C@H](C)C[C@H](N(C)C)[C@H]2O)[C@](C)(OC)C[C@@H](C)/C(=N\OCC#Cc2cncc(C(=O)NC)c2)[C@H](C)[C@H]2OC(=O)O[C@@]21C | > 256 | 16 (≈ 13.6 µM) | 16 (≈ 13.6 µM) | 1 | 1 (≈ 0.85 µM) | 8 | > 256 | > 128 | 1 | 0.12 (≈ 0.102 µM) | 0.12 (≈ 0.102 µM) | 8 (≈ 6.8 µM) | 64 (≈ 54.4 µM) | 0.12 (≈ 0.102 µM) | > 256 | > 64 | >8 | >8 | 16 (≈ 13.6 µM) | >4
3 | CC[C@H]1OC(=O)[C@H](C)[C@@H](OC(=O)CCNCCCCCCCNc2cc3c(cc2F)c(=O)c(C(=O)O)cn3C2CC2)[C@H](C)[C@@H](O[C@@H]2O[C@H](C)C[C@H](N(C)C)[C@H]2O)[C@](C)(OC)C[C@@H](C)/C(=N\OC)[C@H](C)[C@H]2OC(=O)O[C@@]21C | 16 (≈ 14.9 µM) | 256 (≈ 238 µM) | 256 (≈ 238 µM) | 2 | 2 (≈ 1.86 µM) | 1 | > 256 | 0.125 (≈ 0.116 µM) | 1 | 0.125 (≈ 0.116 µM) | 0.25 (≈ 0.233 µM) | 8 (≈ 7.45 µM) | 2 (≈ 1.86 µM) | 2 (≈ 1.86 µM) | 128 (≈ 119 µM) | 16 (≈ 14.9 µM) | 2 | 8 | 0.016 (≈ 0.0149 µM) | 8
4 | CC[C@H]1OC(=O)[C@H](C)[C@@H](OC(=O)CCN2CCN(c3cc4c(cc3F)c(=O)c(C(=O)O)cn4C3CC3)CC2)[C@H](C)[C@@H](O[C@@H]2O[C@H](C)C[C@H](N(C)C)[C@H]2O)[C@](C)(OC)C[C@@H](C)/C(=N\OC/C=C/c2cncc(C(=O)NC)c2)[C@H](C)[C@H]2OC(=O)O[C@@]21C | > 256 | 4 (≈ 3.36 µM) | 4 (≈ 3.36 µM) | 2 | 0.5 (≈ 0.42 µM) | 4 | > 256 | > 64 | 1 | 0.03 (≈ 0.0252 µM) | 0.06 (≈ 0.0504 µM) | 2 (≈ 1.68 µM) | 64 (≈ 53.8 µM) | 0.12 (≈ 0.101 µM) | > 256 | > 16 | >8 | >8 | 8 (≈ 6.72 µM) | >4
5 | CC[C@H]1OC(=O)[C@H](C)[C@@H](OC(=O)CCNCCCCNc2cc3c(cc2F)c(=O)c(C(=O)O)cn3C2CC2)[C@H](C)[C@@H](O[C@@H]2O[C@H](C)C[C@H](N(C)C)[C@H]2O)[C@](C)(OC)C[C@@H](C)/C(=N\OC/C=C/c2cncc(C(=O)NC)c2)[C@H](C)[C@H]2OC(=O)O[C@@]21C | > 256 | 4 (≈ 3.35 µM) | 2 (≈ 1.68 µM) | >=1 | 0.06 (≈ 0.0503 µM) | 1 | > 256 | > 1 | 2 | ≤ 0.008 | 0.008 (≈ 0.00671 µM) | 2 (≈ 1.68 µM) | 32 (≈ 26.8 µM) | 0.06 (≈ 0.0503 µM) | > 256 | 2 (≈ 1.68 µM) | 1 | >8 | 0.12 (≈ 0.101 µM) | >8
6 | CC[C@H]1OC(=O)[C@H](C)[C@@H](OC(=O)CCNCCCCNc2cc3c(cc2F)c(=O)c(C(=O)O)cn3C2CC2)[C@H](C)[C@@H](O[C@@H]2O[C@H](C)C[C@H](N(C)C)[C@H]2O)[C@](C)(OC)C[C@@H](C)/C(=N\OC/C=C/c2cncc(C(N)=O)c2)[C@H](C)[C@H]2OC(=O)O[C@@]21C | 32 (≈ 27.2 µM) | 16 (≈ 13.6 µM) | 16 (≈ 13.6 µM) | >=1 | 0.008 (≈ 0.00679 µM) | – | > 256 | > 2 | 1 | ≤ 0.008 | 0.008 (≈ 0.00679 µM) | 0.12 (≈ 0.102 µM) | 32 (≈ 27.2 µM) | ≤ 0.008 | > 256 | 0.25 (≈ 0.212 µM) | 2 | >8 | 0.25 (≈ 0.212 µM) | 1
7 | CC[C@H]1OC(=O)[C@H](C)[C@@H](OC(=O)CCNCCCCNc2cc3c(cc2F)c(=O)c(C(=O)O)cn3C2CC2)[C@H](C)[C@@H](O[C@@H]2O[C@H](C)C[C@H](N(C)C)[C@H]2O)[C@](C)(OC)C[C@@H](C)/C(=N\OCC#Cc2cncc(C(=O)NC3CC3)c2)[C@H](C)[C@H]2OC(=O)O[C@@]21C | 64 (≈ 52.6 µM) | 8 (≈ 6.58 µM) | 8 (≈ 6.58 µM) | >=1 | 0.008 (≈ 0.00658 µM) | – | > 256 | > 0.5 | 1 | ≤ 0.008 | 0.008 (≈ 0.00658 µM) | 0.03 (≈ 0.0247 µM) | 32 (≈ 26.3 µM) | ≤ 0.008 | 128 (≈ 105 µM) | > 0.25 | >8 | >8 | 0.06 (≈ 0.0493 µM) | 2
8 | CC[C@H]1OC(=O)[C@H](C)[C@@H](OC(=O)CCNCCCCNc2cc3c(cc2F)c(=O)c(C(=O)O)cn3C2CC2)[C@H](C)[C@@H](O[C@@H]2O[C@H](C)C[C@H](N(C)C)[C@H]2O)[C@](C)(OC)C[C@@H](C)/C(=N\OCC#Cc2cncc(C(N)=O)c2)[C@H](C)[C@H]2OC(=O)O[C@@]21C | 128 (≈ 109 µM) | 2 (≈ 1.7 µM) | 2 (≈ 1.7 µM) | >=1 | 0.008 (≈ 0.0068 µM) | – | > 256 | > 0.5 | 1 | ≤ 0.008 | 0.008 (≈ 0.0068 µM) | 0.06 (≈ 0.051 µM) | 64 (≈ 54.4 µM) | ≤ 0.008 | 128 (≈ 109 µM) | > 0.5 | >8 | >8 | 0.06 (≈ 0.051 µM) | 2
